This assay has as its system C8166. Description: Compound was tested for antiviral activity against HIV C 8166 cells at a concentration of 5-50 uM; NS - No significant activity. Type of assay: functional, cell-based. Particulars: Homo sapiens.

The source made the active and inactive calls. The rule behind the calls is not given here.

As for `COC(=O)C(C(=O)OC)=C1NC(=O)N(C2C=CC(CO)O2)C=C1C` (stereo not drawn), the result was inactive.
Turning to `CCSc1nc(=O)n(C2C=CC(CO)O2)cc1C` (stereo not drawn), the result was inactive.
Regarding `COc1nc(=O)n(C2C=CC(CO)O2)cc1C` (stereo not drawn), the outcome was inactive.

Values taken from ChEMBL document CHEMBL1150026, “Synthesis of 2,3-dideoxy-2,3-didehydronucleoside analogues as potential anti HIV agents” (Bioorg Med Chem Lett, 1992).
